Measurements from article PMC12067350, “Discovery of Thieno[3,2‑b]pyridine-5-carboxamide and 2,3-Difluorobenzamide Negative Allosteric Modulators of Metabotropic Glutamate Receptor Subtype 5” (ACS Medicinal Chemistry Letters, 2025).

Tests used:
Assay type in all cases: in vitro ADME
[1] = Intrinsic clearance in rat liver microsomes; conditions: for CLint scaled at 0.75 h, 1 µM: pH 7.4, rat liver microsomes; for rat CLhep: predicted hepatic clearance from in vitro rat microsomal data
Description: Intrinsic Clearance in Rat and Human Liver Microsomes
The in vitro intrinsic clearance (CL int) was investigated in commercially obtained hepatic microsomes from rat and human donors using the substrate depletion (i.e., loss-of-parent vs. time, or t 1/2 method) approach with analyte detection via liquid chromatography-tandem mass spectrometry (LC-MS/MS). For each species, mean %parent remaining values at each time point were calculated from replicates raw data (analyte:IS peak area ratios) and used to determine in vitro t 1/2 and CLint.
Experiments were carried out using a robot-assisted (TECAN model Evo 200). Compound was incubated (1 µM final concentration) in buffer (100 mM potassium phosphate pH 7.4 with 3 mM MgCl2) containing hepatic microsomes (0.5 mg/mL final concentration) from multiple species, discretely, at 37 °C under constant orbital shaking. After 5 minutes (pre-incubation), reactions were initiated by addition of nicotinamide adenine dinucleotide phosphate (NADPH, 1 mM final concentration). At selected time intervals (0, 3, 7, 15, 25, and 45 minutes) post-addition of NADPH, aliquots (50 µL) were taken and placed into a 96-shallow-well plate containing ice cold acetonitrile (150 µL) with carbamazepine (IS, 50 nM). The plates were then centrifuged (3000 rcf at 4 °C) for 10 minutes. The supernatants were transferred to a new 96-shallow-well daughter plate and diluted (1:1 v/v) with water (Milli-Q filtered). The plates were then sealed in preparation for LC-MS/MS analysis (see below).
Raw LC-MS/MS peak area data generated from the assay samples were used to construct natural log-transformed %parent remaining vs. time plots (using t = 0 minute post-NADPH addition sample data as starting point set to 100%). In vitro compound half-life (t 1/2) values were obtained using the following […]
k is the slope from linear regression analysis of the natural log-transformed data (using means from Where all replicates at each time point). Resulting t 1/2 values were then used to calculate hepatic CLint values according to the following equation and with the use of species-specific scale-up factors for liver weight (grams) per total body weight (kg):
CL = 0.693 x 1 mL incubation x 45 mg microsomes x a gram liver
int in vitro t1/2 0.5 mg microsomes 1 gram liver kg body wt aScale-up factors used are 45 (rat) and 20 (human).1
Predicted hepatic clearance (CLhep) was calculated using the following equation: […]
Qh represents hepatic blood flow (mL/min/kg): 21 for human, 70 for rat, and 90 for mouse.

[2] = Binding in plasma from rat (equilibrium dialysis); conditions: fraction unbound
Description: (§1) Binding in plasma from rat and human.
(§2) Determination of compounds’ fraction unbound (f u) in plasma from rat and human was conducted in vitro via equilibrium dialysis using HTDialysis membrane plates. Dialysis membranes (four paired strips per HTD assay) were hydrated as described by the manufacturer and inserted into the HTD plate, which was assembled and prepared for sample addition by the dispensing of blank buffer (DPBS, 100 µL/well) into the ‘top half’ of each membrane-split well. Each compound was diluted into plasma from each species (5 µM final concentration), which was aliquoted in triplicate to the ‘bottom half’ of the prepared HTD plate wells. The HTD plate was sealed and incubated for 6 hours at 37 °C. […] Supernatant (60 µL) from each well of the daughter plates was then transferred to the corresponding wells of new daughter plates (96-shallow-well, V bottom) containing water (Milli-Q, 60 µL/well), and the plates were sealed in preparation for LC-MS/MS analysis (see below). fu was calculated as (analyte to IS MS peak area ratio from Trans-buffer side) / (analyte to IS MS peak area ratio from Cis-plasma side). Mean values for each species were calculated from 3 replicates. […]
(§3) Mean values for each species were calculated from 3 replicates.

[3] = Binding in plasma from human (equilibrium dialysis); conditions: fraction unbound
Description: as §1
Determination of compounds’ fraction unbound (f u) in plasma from rat and human was conducted in vitro via equilibrium dialysis using HTDialysis membrane plates. Dialysis membranes (four paired strips per HTD assay) were hydrated as described by the manufacturer and inserted into the HTD plate, which was assembled and prepared for sample addition by the dispensing of blank buffer (DPBS, 100 µL/well) into the ‘top half’ of each membrane-split well. Each compound was diluted into plasma from each species (5 µM final concentration), which was aliquoted in triplicate to the ‘bottom half’ of the prepared HTD plate wells. The HTD plate was sealed and incubated for 6 hours at 37 °C. Following incubation, each well (both top and bottom halves) were transferred (20 µL) to the corresponding wells of a 96-shallow-well (V-bottom) plate. The daughter plates were then matrix-matched (buffer side wells received equal volume of plasma, and plasma side wells received equal volume of buffer), and extraction solution (120 µL; acetonitrile containing 50 nM carbamazepine as IS) was added to all wells of both daughter plates to precipitate protein and extract test article. The plates were then sealed and centrifuged (3500 rcf) for 10 minutes at ambient temperature. Supernatant (60 µL) from each well of the daughter plates was then transferred to the corresponding wells of new daughter plates (96-shallow-well, V bottom) containing water (Milli-Q, 60 µL/well), and the plates were sealed in preparation for LC-MS/MS analysis (see below). fu was calculated as (analyte to IS MS peak area ratio from Trans-buffer side) / (analyte to IS MS peak area ratio from Cis-plasma side). Mean values for each species were calculated from 3 replicates. […]
as §3

[4] = Binding in brain homogenate from rat (equilibrium dialysis); conditions: fraction unbound, rat brain homogenates
Description: as §1
as §2, with “wells.” for “wells. The HTD plate was sealed and incubated for 6 hours at 37 °C.”
The diluted fraction unbound (f u2) in brain was calculated as (analyte to IS MS peak area ratio from Trans-buffer side) / (analyte to IS MS peak area ratio from Cis-brain homogenate side). […]
as §3

CYP2C9 = target: T1, CYP2C9 (Homo sapiens, UniProt P11712); test: Cytochrome P450 inhibition using human liver microsomes, CYP2C9; conditions: read-out: CYP 450 IC50, 2C9
T1 construct: from tissue; host or cells: human liver microsomes
T1 sequence (P11712 whole entry): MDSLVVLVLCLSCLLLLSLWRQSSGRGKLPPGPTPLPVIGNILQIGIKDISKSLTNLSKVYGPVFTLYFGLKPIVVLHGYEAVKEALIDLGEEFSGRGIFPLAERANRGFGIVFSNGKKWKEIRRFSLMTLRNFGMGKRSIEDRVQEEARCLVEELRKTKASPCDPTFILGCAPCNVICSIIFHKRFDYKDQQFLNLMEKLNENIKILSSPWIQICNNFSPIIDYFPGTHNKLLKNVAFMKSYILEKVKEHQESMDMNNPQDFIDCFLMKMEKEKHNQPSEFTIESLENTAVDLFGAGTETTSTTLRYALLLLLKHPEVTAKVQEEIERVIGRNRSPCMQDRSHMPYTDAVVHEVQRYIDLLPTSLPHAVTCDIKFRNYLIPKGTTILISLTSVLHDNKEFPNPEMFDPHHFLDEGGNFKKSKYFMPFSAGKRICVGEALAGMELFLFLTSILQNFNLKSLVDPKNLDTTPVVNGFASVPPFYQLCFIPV

Row | CLint scaled at 0.75 h, 1 µM [1] [mL/min/kg] | rat CLhep [1] [mL/min/kg] | rat f u,plasma [2] | human f u,plasma [3] | Rat f u,brain [4] | IC50 (CYP2C9) [µM] | SMILES
1 | 143 | 47.0 | 0.027 | 0.020 | 0.009 | > 30 | Cc1csc(NC(=O)c2cc(O[C@@H]3CCOC3)c3sccc3n2)n1 [19aA]
2 | 116 | 43.7 | 0.040 | 0.069 | 0.051 | > 30 | Cc1csc(NC(=O)c2cc(O[C@@H]3CCOC3)cc(F)c2F)n1 [27cA]
